The values below come from PubChem BioAssay AID248 (DTP/NCI, 2004).

The test system of this assay is L1210 leukemia ip in BDF1 mice, survival T/C. Nature of the assay: NCI In Vivo Anticancer Drug Screen. Data for tumor model L1210 Leukemia (intraperitoneal) in B6D2F1 (BDF1) mice. Particulars: endpoint: mean survival time, higher = longer survival. In short, it runs like this:
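Read-out is survival time, reported as the treated-group measurement over the vehicle-control measurement.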

Where [1] appears, read: dose: 100.0 mg/kg/injection, schedule: Q01DX009 (ip), vehicle: Klucel (hydroxypropylcellulose) (HPC).
Setting [2] is: dose: 50.0 mg/kg/injection, schedule: Q04DX003 (ip), vehicle: saline with Tween-80.
Setting [3] is: dose: 100.0 mg/kg/injection, schedule: Q04DX003 (ip), vehicle: saline with Tween-80.
The mark [4] stands for this setting: dose: 100.0 mg/kg/injection, schedule: Q01DX009 (ip), vehicle: saline with Tween-80.
The mark [5] stands for this setting: dose: 100.0 mg/kg/injection, schedule: Q01DX001 (ip), vehicle: saline.
The mark [6] stands for this setting: dose: 100.0 mg/kg/injection, schedule: Q04DX003 (ip), vehicle: Klucel (hydroxypropylcellulose) (HPC).
[7] abbreviates: dose: 200.0 mg/kg/injection, schedule: Q04DX003 (ip), vehicle: Klucel (hydroxypropylcellulose) (HPC).
[8] abbreviates: dose: 400.0 mg/kg/injection, schedule: Q04DX003 (ip), vehicle: Klucel (hydroxypropylcellulose) (HPC).
[9] abbreviates: dose: 200.0 mg/kg/injection, schedule: Q01DX009 (ip), vehicle: saline with Tween-80.
Where [10] appears, read: dose: 100.0 mg/kg/injection, schedule: Q01DX001 (ip), vehicle: carboxymethylcellulose (CMC).
[11] abbreviates: dose: 200.0 mg/kg/injection, schedule: Q01DX001 (ip), vehicle: carboxymethylcellulose (CMC).
Setting [12] is: dose: 200.0 mg/kg/injection, schedule: Q01DX009 (ip), vehicle: Klucel (hydroxypropylcellulose) (HPC).
Where [13] appears, read: dose: 200.0 mg/kg/injection, schedule: Q01DX001 (ip), vehicle: saline.
Setting [14] is: dose: 100.0 mg/kg/injection, schedule: Q01DX009 (ip), vehicle: saline.
The mark [15] stands for this setting: dose: 200.0 mg/kg/injection, schedule: Q01DX009 (ip), vehicle: saline.

“And” between values parts separate entries of the source, which are not always exact repeats. Equal entries are not always repeated. Inconclusive results and toxic doses are left out.

For `NCCOB(c1ccccc1)c1ccccc1`, the T/C by setting is: (dose: 3.8 mg/kg/injection, schedule: Q01DX009 (ip), vehicle: saline with Tween-80) 94 % of control; (dose: 7.5 mg/kg/injection, schedule: Q01DX009 (ip), vehicle: saline with Tween-80) 105 % of control; (dose: 15.0 mg/kg/injection, schedule: Q01DX009 (ip), vehicle: saline with Tween-80) 91 % of control.
`Cc1nnc(NC(=O)CCl)s1`: the T/C (dose: 100.0 mg/kg/injection, schedule: Q01DX001 (ip), vehicle: other) is 107 % of control; the T/C under setting [1] was 98 % of control; the T/C (dose: 100.0 mg/kg/injection, schedule: Q04DX003 (ip), vehicle: other) is 98 % of control; the T/C (dose: 200.0 mg/kg/injection, schedule: Q01DX001 (ip), vehicle: other) is 100 % of control; the T/C (dose: 200.0 mg/kg/injection, schedule: Q04DX003 (ip), vehicle: other) was 106 % of control; the T/C (dose: 400.0 mg/kg/injection, schedule: Q01DX001 (ip), vehicle: other) was 98 % of control. In addition, the T/C (dose: 400.0 mg/kg/injection, schedule: Q04DX003 (ip), vehicle: other) is 101 % of control.
As to `O=C([O-])C(=O)[O-].[Cu+2].[OH2+]CC[N-]CC[OH2+].[OH2+]CC[N-]CC[OH2+]`, the T/C was 97 % of control (dose: 5.0 mg/kg/injection, schedule: Q01DX001 (ip), vehicle: saline); 92 % of control (dose: 10.0 mg/kg/injection, schedule: Q01DX001 (ip), vehicle: saline); 103 % of control (dose: 20.0 mg/kg/injection, schedule: Q01DX001 (ip), vehicle: saline).
Consider `O=C(COc1cccc(Cl)c1)Nc1cc[n+](Cc2ccc(S(=O)(=O)F)cc2)cc1`, for which the T/C is 102 % of control (dose: 25.0 mg/kg/injection, schedule: Q04DX003 (ip), vehicle: saline with Tween-80); 100 % of control under setting [2]; 97 % of control and 113 % of control under setting [3].
As to `O=C1NC(c2ccccc2)(c2ccccc2)C(=O)N1CCN(CCCl)CCCl`, the T/C runs as follows: (dose: 12.5 mg/kg/injection, schedule: Q01DX009 (ip), vehicle: saline with Tween-80) 116 % of control; (dose: 25.0 mg/kg/injection, schedule: Q01DX009 (ip), vehicle: saline with Tween-80) 102 % of control; under setting [2], 105 % of control; under setting [4], 121 % of control; under setting [3], 116 % of control and 121 % of control.
For the compound `CC(=O)Oc1ccc(OC(C)=O)c2c1C(=O)C=CC2=O`, the T/C reads like this: (dose: 0.78 mg/kg/injection, schedule: Q04DX002 (ip), vehicle: alcohol) 110 % of control; (dose: 1.56 mg/kg/injection, schedule: Q04DX002 (ip), vehicle: alcohol) 100 % of control; (dose: 3.12 mg/kg/injection, schedule: Q04DX002 (ip), vehicle: alcohol) 106 % of control; (dose: 6.25 mg/kg/injection, schedule: Q04DX002 (ip), vehicle: alcohol) 93 % of control; under setting [5], 107 % of control.
As for `COc1cc(C=Nc2cc(Br)c(O)c(Br)c2)ccc1N(CCCCl)CCCCl`, the T/C was 97 % of control under setting [6], 100 % of control under setting [7] and 102 % of control under setting [8].
Consider `O=C(OCS(=O)c1ccccc1)c1ccccc1` (stereo not given), for which the T/C under setting [6] was 94 % of control and the T/C under setting [7] is 104 % of control.
In the case of `COc1ccc(CC(C)N)cc1OC` (stereo not given), the T/C reads like this: (dose: 100.0 mg/kg/injection, schedule: Q04DX002 (ip), vehicle: saline) 105 % of control; (dose: 200.0 mg/kg/injection, schedule: Q04DX002 (ip), vehicle: saline) 102 % of control.
In the case of `CC(=O)NC1CCCC(C)C1` (stereo not given), the T/C was 101 % of control under setting [4] and 106 % of control under setting [9].
Take `CCN(CC)c1cccc(O)c1`: the T/C under setting [3] was 90 % of control and the T/C (dose: 200.0 mg/kg/injection, schedule: Q04DX003 (ip), vehicle: saline with Tween-80) was 95 % of control.
On to `CCOC(=O)c1ccc(Cn2c(C)cc(=O)n(Cc3ccc(C(=O)OCC)cc3)c2=O)cc1`, for which the T/C is 102 % of control (dose: 100.0 mg/kg/injection, schedule: Q01DX001 (ip), vehicle: Klucel (hydroxypropylcellulose) (HPC)); 94 % of control (dose: 200.0 mg/kg/injection, schedule: Q01DX001 (ip), vehicle: Klucel (hydroxypropylcellulose) (HPC)); 91 % of control (dose: 400.0 mg/kg/injection, schedule: Q01DX001 (ip), vehicle: Klucel (hydroxypropylcellulose) (HPC)).
`O=NN1C(=O)N[C@@H]2[C@H]1CS[C@@H]2CCCCC(=O)O`: the T/C was 101 % of control (dose: 50.0 mg/kg/injection, schedule: Q01DX001 (ip), vehicle: carboxymethylcellulose (CMC)); 96 % of control under setting [10]; 101 % of control under setting [11]; 95 % of control (dose: 300.0 mg/kg/injection, schedule: Q01DX001 (ip), vehicle: carboxymethylcellulose (CMC)); 95 % of control (dose: 400.0 mg/kg/injection, schedule: Q01DX001 (ip), vehicle: carboxymethylcellulose (CMC)); 87 % of control (dose: 600.0 mg/kg/injection, schedule: Q01DX001 (ip), vehicle: carboxymethylcellulose (CMC)). Moreover, the T/C (dose: 800.0 mg/kg/injection, schedule: Q01DX001 (ip), vehicle: carboxymethylcellulose (CMC)) was 90 % of control.
Regarding `Nc1nc(C=O)c(-c2cccc3ccccc23)c(=O)[nH]1`, the T/C under setting [4] was 112 % of control and the T/C under setting [9] was 94 % of control.
Turning to `CCCCCCCCCCCCCCCCS(=O)(=O)N/N=C/c1ccccc1O`, the T/C under setting [10] is 95 % of control and the T/C under setting [11] was 98 % of control.
Take `CC(C)=CCC(=O)NC(=O)NS(=O)(=O)c1ccc(Cl)cc1`: the T/C is 100 % of control under setting [6], 177 % of control under setting [7] and 94 % of control under setting [8].
In the case of `O=C(O)c1c(Br)c(Br)c(Br)c(Br)c1C(=O)Nc1cccc(C(F)(F)F)c1`, the T/C runs as follows: under setting [1], 107 % of control; under setting [12], 108 % of control; (dose: 400.0 mg/kg/injection, schedule: Q01DX009 (ip), vehicle: Klucel (hydroxypropylcellulose) (HPC)) 107 % of control.
Turning to `CCN(CC)CCOc1ccc(N)cc1`, the T/C is 94 % of control under setting [5]; 94 % of control under setting [13]; 100 % of control (dose: 400.0 mg/kg/injection, schedule: Q01DX001 (ip), vehicle: saline).
Consider `O=C(Nc1cccc(C(F)(F)F)c1)OCCOc1ccc(Cl)cc1`, for which the T/C reads like this: (dose: 100.0 mg/kg/injection, schedule: Q04DX002 (ip), vehicle: Klucel (hydroxypropylcellulose) (HPC)) 89 % of control; (dose: 200.0 mg/kg/injection, schedule: Q04DX002 (ip), vehicle: Klucel (hydroxypropylcellulose) (HPC)) 96 % of control; (dose: 400.0 mg/kg/injection, schedule: Q04DX002 (ip), vehicle: Klucel (hydroxypropylcellulose) (HPC)) 101 % of control.
In the case of `Cc1ccc(/C=C2\CCC3C(=O)CCCC3C2=O)cc1` (stereo not given), the T/C was 107 % of control under setting [5] and 89 % of control under setting [13].
Take `CN(C)CCCNc1n[nH]c2cccc(Cl)c12`: the T/C was 104 % of control (dose: 50.0 mg/kg/injection, schedule: Q01DX009 (ip), vehicle: saline); 96 % of control under setting [14]; 104 % of control under setting [15].
Consider `CCCCCC(=N\N=C(N)N)/C(C)=N/N=C(N)N`, for which the T/C is 106 % of control (dose: 7.5 mg/kg/injection, schedule: Q01DX Z (ip), vehicle: saline); 111 % of control (dose: 15.0 mg/kg/injection, schedule: Q01DX Z (ip), vehicle: saline); 93 % of control (dose: 30.0 mg/kg/injection, schedule: Q01DX Z (ip), vehicle: saline).
Consider `CC1CCCC/C1=N/NC(=O)c1ccccc1` (stereo not given), for which the T/C is 95 % of control (dose: 50.0 mg/kg/injection, schedule: Q01DX009 (ip), vehicle: saline with Tween-80); 110 % of control under setting [4]; 108 % of control under setting [9].
Consider `O=C(O)CC(NC(=O)OCc1ccccc1)C(=O)O` (stereo not given), for which the T/C (dose: 50.0 mg/kg/injection, schedule: Q01DX009 (ip), vehicle: Klucel (hydroxypropylcellulose) (HPC)) was 95 % of control; the T/C under setting [1] was 92 % of control; the T/C under setting [14] is 114 % of control; the T/C under setting [12] is 98 % of control; the T/C under setting [15] was 113 % of control; the T/C (dose: 400.0 mg/kg/injection, schedule: Q01DX009 (ip), vehicle: saline) was 107 % of control.
